One may read the IC50 as the midpoint of a concentration-inhibition curve.

Chain of human GluN1/GluN2B NMDA receptors (Q13224 27-1484, other chains not shown): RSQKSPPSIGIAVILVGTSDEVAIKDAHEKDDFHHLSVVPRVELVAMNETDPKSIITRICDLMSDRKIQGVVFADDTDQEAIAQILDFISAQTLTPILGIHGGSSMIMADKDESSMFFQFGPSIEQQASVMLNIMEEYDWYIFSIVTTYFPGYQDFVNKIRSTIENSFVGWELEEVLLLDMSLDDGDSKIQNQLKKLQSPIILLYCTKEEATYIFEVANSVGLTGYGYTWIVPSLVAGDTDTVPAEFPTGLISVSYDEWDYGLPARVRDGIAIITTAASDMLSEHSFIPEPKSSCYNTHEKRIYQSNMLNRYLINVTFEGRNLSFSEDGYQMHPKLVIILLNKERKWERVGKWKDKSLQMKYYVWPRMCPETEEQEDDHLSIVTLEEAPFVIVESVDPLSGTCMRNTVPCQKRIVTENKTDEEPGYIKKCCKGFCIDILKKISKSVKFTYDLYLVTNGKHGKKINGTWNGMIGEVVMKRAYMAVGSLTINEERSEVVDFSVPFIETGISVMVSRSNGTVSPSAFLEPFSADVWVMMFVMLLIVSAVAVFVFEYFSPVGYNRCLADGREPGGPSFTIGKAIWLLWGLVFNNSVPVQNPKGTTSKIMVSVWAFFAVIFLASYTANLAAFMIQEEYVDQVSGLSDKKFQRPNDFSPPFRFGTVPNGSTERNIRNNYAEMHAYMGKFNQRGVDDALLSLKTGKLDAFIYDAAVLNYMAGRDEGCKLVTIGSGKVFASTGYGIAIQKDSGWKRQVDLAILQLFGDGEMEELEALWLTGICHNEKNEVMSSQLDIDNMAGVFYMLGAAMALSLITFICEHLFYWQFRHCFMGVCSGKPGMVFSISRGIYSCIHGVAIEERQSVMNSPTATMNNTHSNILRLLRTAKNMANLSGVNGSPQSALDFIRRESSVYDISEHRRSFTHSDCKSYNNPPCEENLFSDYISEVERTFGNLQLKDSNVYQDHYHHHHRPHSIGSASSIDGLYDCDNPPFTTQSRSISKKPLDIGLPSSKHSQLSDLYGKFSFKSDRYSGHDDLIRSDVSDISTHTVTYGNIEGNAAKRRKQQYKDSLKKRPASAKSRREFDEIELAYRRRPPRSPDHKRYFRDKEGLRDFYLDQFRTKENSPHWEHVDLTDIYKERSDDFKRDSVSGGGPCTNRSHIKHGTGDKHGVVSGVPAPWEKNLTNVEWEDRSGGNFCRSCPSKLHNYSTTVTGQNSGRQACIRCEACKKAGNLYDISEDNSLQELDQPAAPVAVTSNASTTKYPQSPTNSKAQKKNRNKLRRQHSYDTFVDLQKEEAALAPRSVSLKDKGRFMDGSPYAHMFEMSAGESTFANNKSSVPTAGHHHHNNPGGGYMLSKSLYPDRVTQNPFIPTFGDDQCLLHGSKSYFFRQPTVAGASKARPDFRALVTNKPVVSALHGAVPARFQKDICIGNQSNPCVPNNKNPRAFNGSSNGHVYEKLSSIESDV

One assay has as its target human GluN1/GluN2B NMDA receptors (Homo sapiens, UniProt Q05586+Q13224). Briefly: Cell-based calcium flux (FLIPR) assay on cloned human NR1/NR2B ion channels expressed in mammalian cells. As to conditions: standard assay; glutamate at ~EC80; FLIPR calcium flux. Put shortly:
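Calcium influx followed by FLIPR fluorescence after 5 min compound exposure and a further 5 min co-agonist challenge: 10 μM glycine with glutamate at ~EC80 (standard) or EC40 (HTS).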
For `Cc1nc(OCc2cn(-c3ccc(F)c(C(F)(F)F)c3)nn2)ncc1Cl` [Example 444, 5-Chloro-2-[[1-[4-fluoro-3-(trifluoromethyl)phenyl]triazol-4-yl]methoxy]-4-methyl-pyrimidine], the IC50 turned out to be 0.013 µM.
With `Cc1c(COc2ncc(C3CC3)cn2)nnn1-c1ccc(F)c(C(C)(F)F)c1` [Example 594, 5-Cyclopropyl-2-[[1-[3-(1,1-difluoroethyl)-4-fluoro-phenyl]-5-methyl-triazol-4-yl]methoxy]pyrimidine], the IC50 amounted to 0.171 µM.
Consider `COc1nc(OCc2cn(-c3ccc(F)c(C(F)F)c3)nn2)ncc1C` [Example 411, 2-[[1-[3-(Difluoromethyl)-4-fluoro-phenyl]triazol-4-yl]methoxy]-4-methoxy-5-methyl-pyrimidine], for which the IC50 was 0.021 µM.
`OCc1ccnc(OCc2cn(-c3ccc(F)c(Br)c3)nn2)n1` [Example 617, [2-[[1-(3-Bromo-4-fluoro-phenyl)triazol-4-yl]methoxy]pyrimidin-4-yl]methanol]: the IC50 came out at 0.041 µM.
The same measure, in the same setting: next, `Cc1cc(F)ccc1-n1cc(COc2ncc(Cl)cn2)nn1` [Example 489, 5-Chloro-2-[[1-(4-fluoro-2-methyl-phenyl)triazol-4-yl]methoxy]pyrimidine]: 4.42 µM; `Cc1cnc(OCc2cn(-c3ccc(Cl)c(C(F)F)c3)nn2)nc1N(C)C` [Example 633, 2-[[1-[4-Chloro-3-(difluoromethyl)phenyl]triazol-4-yl]methoxy]-N,N,5-trimethyl-pyrimidin-4-amine]: 0.057 µM; `CC(=O)c1cnc(OCc2cn(-c3ccc(F)c(C(C)(F)F)c3)nn2)nc1` [Example 585, 1-[2-[[1-[3-(1,1-Difluoroethyl)-4-fluoro-phenyl]triazol-4-yl]methoxy]pyrimidin-5-yl]ethanone]: 0.011 µM.
On the same count and under the same terms, under `COC1CN(c2cnc(OCc3cn(-c4ccc(F)c(C(F)F)c4)nn3)nc2)C1` [Example 418, 2-((1-(3-(Difluoromethyl)-4-fluorophenyl)-1H-1,2,3-triazol-4-yl)methoxy)-5-(3-methoxyazetidin-1-yl)pyrimidine] stands 0.271 µM.
Still for that read-out and setting: under `COCc1ccnc(OCc2cn(-c3ccc(F)c(C(F)F)c3)nn2)n1` [Example 399, 2-[[1-[3-(Difluoromethyl)-4-fluoro-phenyl]triazol-4-yl]methoxy]-4-(methoxymethyl)pyrimidine] stands 0.023 µM; under `Cc1cccc(-n2cc(COc3ncc(Cl)cn3)nn2)c1F` [Example 468, 5-Chloro-2-[[1-(2-fluoro-3-methyl-phenyl)triazol-4-yl]methoxy]pyrimidine], 1.25 µM.
Consider `Cc1cnc(OCc2cn(-c3ccc(Cl)c(C(C)(F)F)c3)nn2)nc1` [Example 530, 2-[[1-[4-Chloro-3-(1,1-difluoroethyl)phenyl]triazol-4-yl]methoxy]-5-methyl-pyrimidine], for which the IC50 came to 0.005 µM.
On the same count and under the same terms, next, `Fc1ccc(-n2cc(COc3ncccc3F)nn2)cc1C(F)(F)F` [Example 427, 3-Fluoro-2-[[1-[4-fluoro-3-(trifluoromethyl)phenyl]triazol-4-yl]methoxy]pyridine]: 0.897 µM; `Cc1ccnc(OCc2cn(-c3ccc(F)c(C(C)(F)F)c3)nn2)c1` [Example 557, 2-[[1-[3-(1,1-Difluoroethyl)-4-fluoro-phenyl]triazol-4-yl]methoxy]-4-methyl-pyridine]: 0.246 µM; `Fc1ccc(-n2cc(COc3nccc(C(F)F)n3)nn2)cc1C(F)F` [Example 402, 4-(Difluoromethyl)-2-[[1-[3-(difluoromethyl)-4-fluoro-phenyl]triazol-4-yl]methoxy]pyrimidine]: 0.051 µM.
On the same count and under the same terms, next, `Cc1cnc(OCc2cn(-c3cccc(Cl)c3F)nn2)nc1` [Example 610, 2-[[1-(3-Chloro-2-fluoro-phenyl)triazol-4-yl]methoxy]-5-methyl-pyrimidine]: 1.03 µM.
On to `Fc1c(Cl)cccc1-n1cc(COc2ncccn2)nn1` [Example 611, 2-[[1-(3-Chloro-2-fluoro-phenyl)triazol-4-yl]methoxy]pyrimidine], for which the IC50 is greater than 10 µM.
The same measure, in the same setting: next, `Cc1ccnc(OCc2cn(-c3ccc(Cl)c(C(C)(F)F)c3)nn2)n1` [Example 531, 2-[[1-[4-Chloro-3-(1,1-difluoroethyl)phenyl]triazol-4-yl]methoxy]-4-methyl-pyrimidine]: 0.017 µM.

Staying with this assay, now noted: standard assay; human GluN1/GluN2B, calcium flux (FLIPR), glutamate ~EC80.
Regarding `Cc1cnc(OCc2cn(-c3cccc(F)c3)nn2)nc1` [Example 232, 2-[[1-(3-Fluorophenyl)triazol-4-yl]methoxy]-5-methyl-pyrimidine], the IC50 was determined as 0.205 µM.
On to `CCc1cc(-n2cc(COc3ncc(C(C)(C)O)cn3)nn2)ccc1F` [Example 182, 2-[2-[[1-(3-Ethyl-4-fluoro-phenyl)triazol-4-yl]methoxy]pyrimidin-5-yl]propan-2-ol], for which the IC50 turned out to be 0.027 µM.
Same read-out and setting: next, `Cc1cnc(OCc2cn(-c3ccc(Cl)c(C(F)F)c3)nn2)nc1` [Example 31, 2-[[1-[4-Chloro-3-(difluoromethyl)phenyl]triazol-4-yl]methoxy]-5-methyl-pyrimidine]: 0.001 µM; `COc1cnc(OCc2cn(-c3cccc(C(C)C)c3)nn2)nc1` [Example 264, 2-[[1-(3-Isopropylphenyl)triazol-4-yl]methoxy]-5-methoxy-pyrimidine]: 0.006 µM.
Same read-out and setting: next, `Cc1cnc(NCc2cn(-c3ccc(Cl)c(C(F)F)c3)nn2)nc1` [Example 154, N-[[1-[4-Chloro-3-(difluoromethyl)phenyl]triazol-4-yl]methyl]-5-methyl-pyrimidin-2-amine]: 0.03 µM.
The same measure, in the same setting: next, `CC(F)(F)c1cc(-n2cc(COc3ncc(N4CCOCC4)cn3)nn2)ccc1F` [Example 187, 4-(2-((1-(3-(1,1-Difluoroethyl)-4-fluorophenyl)-1H-1,2,3-triazol-4-yl)methoxy)pyrimidin-5-yl)morpholine]: 0.088 µM; `FC(F)Oc1cnc(OCc2cn(-c3ccc(Cl)cc3)nn2)nc1` [Example 227, 2-[[1-(4-Chlorophenyl)triazol-4-yl]methoxy]-5-(difluoromethoxy)pyrimidine]: 0.151 µM.
In the case of `Fc1cnc(OCc2cn(-c3cccc(C(F)F)c3)nn2)nc1` [Example 269, 2-[[1-[3-(Difluoromethyl)phenyl]triazol-4-yl]methoxy]-5-fluoro-pyrimidine], the IC50 stood at 0.325 µM.
Still for that read-out and setting: next, `FC(F)(F)Oc1ccc(-n2cc(COc3ncccn3)nn2)cc1` [Example 335, 2-[[1-[4-(Trifluoromethoxy)phenyl]triazol-4-yl]methoxy]pyrimidine]: 3.12 µM; `Fc1ccc(-n2cc(COc3ccccn3)nn2)cc1C(F)F` [Example 111, 2-[[1-[3-(Difluoromethyl)-4-fluoro-phenyl]triazol-4-yl]methoxy]pyridine]: 0.684 µM.
Same read-out and setting: under `Cc1cccc(-n2cc(COc3ncc(Cl)cn3)nn2)c1` [Example 246, 5-Chloro-2-[[1-(m-tolyl)triazol-4-yl]methoxy]pyrimidine] stands 0.033 µM; under `Cc1cnc(OCc2cn(-c3ccccc3C)nn2)nc1` [Example 240, 5-Methyl-2-[[1-(o-tolyl)triazol-4-yl]methoxy]pyrimidine], 5.58 µM; under `CC(F)(F)c1cccc(-n2cc(COc3ncc(OC(F)F)cn3)nn2)c1` [Example 308, 2-[[1-[3-(1,1-Difluoroethyl)phenyl]triazol-4-yl]methoxy]-5-(difluoromethoxy)pyrimidine], 0.003 µM.
Take `Cc1nc(OCc2cn(-c3ccc4c(c3)OC(F)(F)O4)nn2)ncc1F` [Example 357, 2-[[1-(2,2-Difluoro-1,3-benzodioxol-5-yl)triazol-4-yl]methoxy]-5-fluoro-4-methyl-pyrimidine]: the IC50 came out at 0.35 µM.
Same read-out and setting: next, `CNc1ccnc(OCc2cn(-c3cccc(OC(F)(F)F)c3)nn2)n1` [Example 352, N-Methyl-2-[[1-[3-(trifluoromethoxy)phenyl]triazol-4-yl]methoxy]pyrimidin-4-amine]: 0.068 µM; `Cc1cnc(OCc2cn(-c3ccc(F)c(C(F)F)c3)nn2)nc1` [Example 51, 2-[[1-[3-(Difluoromethyl)-4-fluoro-phenyl]triazol-4-yl]methoxy]-5-methyl-pyrimidine]: 0.001 µM.
As to `Cc1cnc(OCc2cn(-c3ccc(F)c(C(C)(F)F)c3)nn2)nc1` [Example 77, 2-[[1-[3-(1,1-Difluoroethyl)-4-fluoro-phenyl]triazol-4-yl]methoxy]-5-methyl-pyrimidine], the IC50 is 0.004 µM.
Same read-out and setting: next, `Cc1cnc(OCc2cn(-c3ccc(F)c(C)c3F)nn2)nc1` [Example 38, 2-[[1-(2,4-Difluoro-3-methyl-phenyl)triazol-4-yl]methoxy]-5-methyl-pyrimidine]: 0.027 µM; `CC(F)(F)c1cccc(-n2cc(COc3ncc(F)cn3)nn2)c1` [Example 295, 2-[[1-[3-(1,1-Difluoroethyl)phenyl]triazol-4-yl]methoxy]-5-fluoro-pyrimidine]: 0.061 µM.
Still for that read-out and setting: under `CCc1cnc(OCc2cn(-c3cccc(C(C)C)c3)nn2)nc1` [Example 267, 5-Ethyl-2-[[1-(3-isopropylphenyl)triazol-4-yl]methoxy]pyrimidine] stands 0.012 µM.
With `FC(F)Oc1cc(-n2cc(COc3nccc(Cl)n3)nn2)ccc1Cl` [Example 190, 4-Chloro-2-[[1-[4-chloro-3-(difluoromethoxy)phenyl]triazol-4-yl]methoxy]pyrimidine], the IC50 was 0.026 µM.
Same read-out and setting: under `Fc1cnc(OCc2cn(-c3ccc(OC(F)F)cc3)nn2)nc1` [Example 330, 2-[[1-[4-(Difluoromethoxy)phenyl]triazol-4-yl]methoxy]-5-fluoro-pyrimidine] stands 0.752 µM; under `CCc1cnc(OCc2cn(-c3cccc(C(F)F)c3)nn2)nc1` [Example 91, 2-[[1-[3-(Difluoromethyl)phenyl]triazol-4-yl]methoxy]-5-ethyl-pyrimidine], 0.004 µM.
Still for that read-out and setting: next, `FC(F)c1ccnc(OCc2cn(-c3ccc4c(c3)CCC4)nn2)n1` [Example 370, 4-(Difluoromethyl)-2-[(1-indan-5-yltriazol-4-yl)methoxy]pyrimidine]: 0.397 µM.

These data come from patent US10233173B2, “Substituted 1,2,3-triazoles as NR2B-selective NMDA modulators” (JANSSEN PHARMACEUTICA NV, priority 2016, dated 2019).
